Results: publication PMC6930660, “Synthesis and Comparative Structure–Activity Study of Carbohydrate-Based Phenolic Compounds as α-Glucosidase Inhibitors and Antioxidants” (Molecules, 2019)

Legend:
[1] = dissolution of the sample in water for the α-glucosidase assay; format: physicochemical; set-up: key: −: Did not dissolve in water; conditions: samples prepared in H2O
Method: (§1) The α-glucosidase inhibitory activity of all samples was assayed utilizing a commercially available FUJIFILM α-glucosidase inhibitory activity assay kit. In total, 25 μL of each sample (25–2000 μg/mL in H2O ) or acarbose (0.5–8 μg/mL in H2O ), 50 μL of 18.5 mM maltose diluted in maleic anhydride buffer (100 mM, pH = 6.0), and 25 μL of the rat α-glucosidase solution were incubated in a micro-tube at 37 °C for 30 min. Subsequently, 400 μL of purified water was added to the solution and the reaction mixture was boiled for 3 min to deactivate α-glucosidase. The generated glucose was measured by LabAssay™ glucose (mutarotase-GOD method). In total, 100 μL of the reaction solution and 150 μL of the coloring solution were incubated in 96-well plates at 37 °C for 10 min, and the absorbance was recorded at 505 nm using a microplate reader (Bio-Rad, Model 680). The inhibition percentage was calculated using the following Equation: Inhibition percentage (%) = 1−As−Ab/Ac ×100 where As is the absorbance of the analyzed sample, Ab is the absorbance of the blank (immediate deactivation), and Ac is the absorbance of the control ([…]). Acarbose was used as the positive control.

[2] = DPPH radical scavenging assay (antioxidant activity); conditions: for EC50: MES-NaOH buffer pH 6.0, 15 min in the dark; for Antioxidant Trolox-eq (TE): trolox-equivalent (mol-trolox/mol-sample) = slope of sample / slope of trolox
Method: The antioxidant activity was assessed by employing the 2,2-diphenyl-1-picrylhydrazyl (DPPH) radical scavenging assay, according to the previously published method. In total, 100 μL of each sample (1000–10 μg/mL in 50%EtOH/ H2O ) or trolox (160–0 μM in 50% EtOH/ H2O ), and 50 μL of 2-(N-morpholino)ethanesulfonic acid (MES)-NaOH buffer (200 mM, pH = 6.0), and 50 μL of an 800 μM DPPH diluted in 99.5% EtOH were mixed in 96-well plates. Following shaking the microplate for 15 min in the dark, the absorbance was recorded at 520 nm using a microplate reader (Bio-Rad, Model 680). Effective percentages (%) were calculated as follows: Effective percentages (%) = 1−As/Ab ×100 where As is the absorbance of the sample and Ab is the absorbance of the blank (without samples, 50% EtOH/ H2O solution was used instead).
The trolox-equivalent (sample-mol/trolox-mol) was calculated as follows: Trolox−equivalent (mol−trolox/mol−sample) = Ss/St where Ss is the slope of the sample and St is the slope of trolox.

rat α-glucosidase = experiment: α-glucosidase inhibitory activity assay (FUJIFILM kit, maltose substrate, glucose measured by mutarotase-GOD method); format: biochemical; conditions: rat α-glucosidase, 18.5 mM maltose, maleic anhydride buffer pH 6.0, 37 °C, 30 min; mean ± S.D. of n = 2
Method: as §1

solubility in water (no α-glucosidase IC50 obtained) [1]	EC50 ([2]; mean ± S.D. of n = 3)	IC50 (rat α-glucosidase)	Molecule	antioxidant activity (in words) [2]	Antioxidant Trolox-eq (TE) ([2]; mean ± S.D. of n = 3)	Antioxidant Trolox-eq (TE) ([2]; mean ± S.D. of n = 3, listed as tellimagrandin I)
−^d	> 78 µM		O=C(OC[C@H]1OC[C@H](OC(=O)c2cccc(O)c2)[C@@H](OC(=O)c2cccc(O)c2)[C@@H]1OC(=O)c1cccc(O)c1)c1cccc(O)c1 [Compound 57, 1,5-Anhydro-2,3,4,6-tetrakis-O-(3-hydroxybenzoyl)-D-glucitol]	no antioxidant activity was observed		
−^d	> 78 µM		O=C(OC[C@H]1OC[C@H](OC(=O)c2ccc(O)cc2)[C@@H](OC(=O)c2ccc(O)cc2)[C@@H]1OC(=O)c1ccc(O)cc1)c1ccc(O)cc1 [Compound 58, 1,5-Anhydro-2,3,4,6-tetrakis-O-(4-hydroxybenzoyl)-D-glucitol]	no antioxidant activity was observed		
	6.31 ± 0.27 µM	3.37 ± 0.04 µM	Tellimagrandin I [reference compound]		7.04 ± 0.37	7.04
